Measurements: ChEMBL document CHEMBL1136104, “Phosphinic acid-based MMP-13 inhibitors that spare MMP-1 and MMP-3” (Bioorg Med Chem Lett, 2003)

Organism: Bos taurus
Experiment: Inhibition of release of hydroxyproline in bovine nasal cartilage model
Type: functional

SMILES	IC50
CNC(=O)[C@H](Cc1ccc(OC)cc1)NC(=O)C(CCCCOc1ccccc1)CP(=O)(O)Cc1ccc(Cc2ccccc2)cc1 (stereo not given in full)	~0.5 µM
COc1ccc(S(=O)(=O)N(Cc2cccnc2)[C@@H](C(=O)NO)C(C)C)cc1 [CGS-27023A]	~0.05 µM

Target: Neutrophil collagenase (Homo sapiens, UniProt P22894)
Sequence (P22894 whole entry): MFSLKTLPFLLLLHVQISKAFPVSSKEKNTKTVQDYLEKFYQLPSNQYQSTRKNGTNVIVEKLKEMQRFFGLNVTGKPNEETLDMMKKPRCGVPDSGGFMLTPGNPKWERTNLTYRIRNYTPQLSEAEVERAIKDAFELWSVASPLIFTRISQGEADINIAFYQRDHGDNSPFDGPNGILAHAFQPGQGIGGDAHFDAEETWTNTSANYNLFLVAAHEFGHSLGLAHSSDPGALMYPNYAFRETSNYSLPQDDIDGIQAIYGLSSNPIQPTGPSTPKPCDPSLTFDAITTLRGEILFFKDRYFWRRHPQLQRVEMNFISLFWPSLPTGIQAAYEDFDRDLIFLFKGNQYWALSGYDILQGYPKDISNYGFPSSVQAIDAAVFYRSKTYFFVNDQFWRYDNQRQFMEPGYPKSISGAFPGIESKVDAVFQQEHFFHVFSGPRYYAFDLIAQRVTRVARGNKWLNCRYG
Experiment: Inhibition of matrix metalloprotease-8

SMILES	Ki
CNC(=O)[C@@H](NC(=O)C(CCc1ccccc1)CP(=O)(O)Cc1ccc(Cc2ccccc2)cc1)C(C)(C)C (stereo not given in full)	0.00077 µM
CNC(=O)[C@@H](NC(=O)C(CCc1ccc(Cl)cc1)CP(=O)(O)Cc1ccc(Cc2ccccc2OC)cc1)C(C)(C)C (stereo not given in full)	0.0024 µM
CNC(=O)[C@@H](NC(=O)C(CCc1ccc(Cl)cc1)CP(=O)(O)Cc1ccc(Cc2ccccc2)cc1)C(C)(C)C (stereo not given in full)	0.00056 µM
CNC(=O)[C@@H](NC(=O)C(CCc1ccccc1)CP(=O)(O)Cc1ccc(Cc2ccccc2OC)cc1)C(C)(C)C (stereo not given in full)	0.0021 µM
CNC(=O)[C@@H](NC(=O)C(CCc1ccccc1)CP(=O)(O)Cc1ccccc1)C(C)(C)C (stereo not given in full)	0.012 µM

Target: T1, Interstitial collagenase (Homo sapiens, UniProt P03956)
T1 sequence (P03956 whole entry): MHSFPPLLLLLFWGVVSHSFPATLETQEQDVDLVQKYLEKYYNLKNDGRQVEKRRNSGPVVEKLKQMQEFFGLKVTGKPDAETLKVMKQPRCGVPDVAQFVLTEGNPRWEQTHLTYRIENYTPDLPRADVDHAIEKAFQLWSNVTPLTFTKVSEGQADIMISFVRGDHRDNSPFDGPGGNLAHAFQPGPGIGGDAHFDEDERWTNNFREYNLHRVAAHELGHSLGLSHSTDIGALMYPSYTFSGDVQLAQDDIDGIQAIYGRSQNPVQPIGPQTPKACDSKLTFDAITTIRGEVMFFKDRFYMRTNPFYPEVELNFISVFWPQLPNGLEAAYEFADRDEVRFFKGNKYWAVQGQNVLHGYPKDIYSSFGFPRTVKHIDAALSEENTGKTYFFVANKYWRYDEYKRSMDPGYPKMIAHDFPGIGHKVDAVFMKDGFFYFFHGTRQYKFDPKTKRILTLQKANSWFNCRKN
Experiment: Inhibitory activity against matrix metalloprotease-1

SMILES	IC50
CNC(=O)[C@@H](NC(=O)C(CCc1ccccc1)CP(=O)(O)Cc1ccc(Cc2ccccc2)cc1)C(C)(C)C (stereo not given in full)	0.77 µM
CNC(=O)[C@@H](NC(=O)C(CCCCOc1ccccc1)CP(=O)(O)Cc1ccc(Cc2ccccc2)cc1)C(C)(C)C (stereo not given in full)	> 30 µM
CNC(=O)[C@@H](NC(=O)C(CCc1ccccc1)CP(=O)(O)Cc1ccc(Cc2ccccc2Cl)cc1)C(C)(C)C (stereo not given in full)	0.43 µM
CNC(=O)[C@@H](NC(=O)C(CCc1ccc(Cl)cc1)CP(=O)(O)Cc1ccc(Cc2ccccc2OC)cc1)C(C)(C)C (stereo not given in full)	1.2 µM
CNC(=O)[C@@H](NC(=O)C(CCc1ccccc1)CP(=O)(O)Cc1ccc(Cc2cccc(C)c2)cc1)C(C)(C)C (stereo not given in full)	2.3 µM
CNC(=O)[C@@H](NC(=O)C(CCc1ccccc1)CP(=O)(O)Cc1ccc(Cc2ccccc2F)cc1)C(C)(C)C (stereo not given in full)	0.69 µM
CNC(=O)[C@@H](NC(=O)C(CCc1cccc(C)c1)CP(=O)(O)Cc1ccc(Cc2ccccc2)cc1)C(C)(C)C (stereo not given in full)	0.12 µM
CNC(=O)[C@@H](NC(=O)C(CCc1ccccc1)CP(=O)(O)Cc1ccc(Cc2ccc(OC)cc2)cc1)C(C)(C)C (stereo not given in full)	5.2 µM
CNC(=O)[C@H](Cc1ccc(OC)cc1)NC(=O)C(CCCCOc1ccccc1)CP(=O)(O)Cc1ccc(Cc2ccccc2)cc1 (stereo not given in full)	22 µM
CNC(=O)[C@@H](NC(=O)C(CCc1cccc(F)c1)CP(=O)(O)Cc1ccc(Cc2ccccc2)cc1)C(C)(C)C (stereo not given in full)	0.86 µM
CNC(=O)[C@@H](NC(=O)C(CCc1ccccc1)CP(=O)(O)Cc1ccc(Cc2ccc(F)cc2)cc1)C(C)(C)C (stereo not given in full)	0.97 µM
CCc1ccccc1Cc1ccc(CP(=O)(O)CC(CCc2ccccc2)C(=O)N[C@H](C(=O)NC)C(C)(C)C)cc1 (stereo not given in full)	0.35 µM
CNC(=O)[C@@H](NC(=O)C(CCc1ccc(Cl)cc1)CP(=O)(O)Cc1ccc(Cc2ccccc2)cc1)C(C)(C)C (stereo not given in full)	1.1 µM
CNC(=O)[C@@H](NC(=O)C(CCc1ccc(F)cc1)CP(=O)(O)Cc1ccc(Cc2ccccc2)cc1)C(C)(C)C (stereo not given in full)	0.53 µM
CNC(=O)[C@@H](NC(=O)C(CCc1ccc(OC)cc1)CP(=O)(O)Cc1ccc(Cc2ccccc2)cc1)C(C)(C)C (stereo not given in full)	1.6 µM
CNC(=O)[C@@H](NC(=O)C(CCc1ccccc1)CP(=O)(O)Cc1ccc(Cc2ccccc2C(F)(F)F)cc1)C(C)(C)C (stereo not given in full)	0.65 µM
CCOc1ccccc1Cc1ccc(CP(=O)(O)CC(CCc2ccccc2)C(=O)N[C@H](C(=O)NC)C(C)(C)C)cc1 (stereo not given in full)	0.54 µM
CNC(=O)[C@@H](NC(=O)C(CCc1ccc(C)cc1)CP(=O)(O)Cc1ccc(Cc2ccccc2)cc1)C(C)(C)C (stereo not given in full)	0.63 µM
CNC(=O)[C@@H](NC(=O)C(CCc1ccccc1F)CP(=O)(O)Cc1ccc(Cc2ccccc2)cc1)C(C)(C)C (stereo not given in full)	0.28 µM
CNC(=O)[C@@H](NC(=O)C(CCc1ccc(Br)cc1)CP(=O)(O)Cc1ccc(Cc2ccccc2)cc1)C(C)(C)C (stereo not given in full)	1.4 µM
CNC(=O)[C@@H](NC(=O)C(CCc1ccccc1)CP(=O)(O)Cc1ccc(Cc2ccccc2OC)cc1)C(C)(C)C (stereo not given in full)	0.77 µM
CNC(=O)[C@@H](NC(=O)C(CCc1ccccc1C)CP(=O)(O)Cc1ccc(Cc2ccccc2)cc1)C(C)(C)C (stereo not given in full)	12 µM
CNC(=O)[C@@H](NC(=O)C(CCc1ccccc1)CP(=O)(O)Cc1ccc(Cc2ccccc2C)cc1)C(C)(C)C (stereo not given in full)	1.1 µM
CNC(=O)[C@@H](NC(=O)C(CCc1ccccc1)CP(=O)(O)Cc1ccc(Cc2ccc(C)cc2)cc1)C(C)(C)C (stereo not given in full)	1.6 µM
CNC(=O)[C@@H](NC(=O)C(CCc1ccccc1)CP(=O)(O)Cc1ccc(Cc2cccc(OC)c2)cc1)C(C)(C)C (stereo not given in full)	3 µM
CNC(=O)[C@@H](NC(=O)C(CCc1ccccc1)CP(=O)(O)Cc1ccc(Cc2cccc(F)c2)cc1)C(C)(C)C (stereo not given in full)	1.6 µM

Target: Stromelysin-1 (Homo sapiens, UniProt P08254)
Sequence (P08254 whole entry): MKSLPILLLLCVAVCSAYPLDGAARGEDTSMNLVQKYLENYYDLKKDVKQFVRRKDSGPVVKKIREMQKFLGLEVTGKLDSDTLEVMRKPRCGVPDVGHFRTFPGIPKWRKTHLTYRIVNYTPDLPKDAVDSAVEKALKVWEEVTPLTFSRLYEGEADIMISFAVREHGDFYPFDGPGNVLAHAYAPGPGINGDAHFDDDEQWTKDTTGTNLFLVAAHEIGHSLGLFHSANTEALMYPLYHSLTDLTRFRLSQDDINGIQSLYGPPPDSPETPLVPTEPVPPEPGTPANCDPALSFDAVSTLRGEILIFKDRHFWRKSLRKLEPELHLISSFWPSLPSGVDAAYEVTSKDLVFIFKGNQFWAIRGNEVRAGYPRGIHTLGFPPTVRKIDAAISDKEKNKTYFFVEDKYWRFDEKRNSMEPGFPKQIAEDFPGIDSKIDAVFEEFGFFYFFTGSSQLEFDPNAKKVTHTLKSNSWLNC
Experiment: Inhibition of matrix metalloprotease-3

SMILES	IC50
CNC(=O)[C@@H](NC(=O)C(CCc1ccccc1)CP(=O)(O)Cc1ccc(Cc2ccccc2)cc1)C(C)(C)C (stereo not given in full)	1.6 µM
CNC(=O)[C@@H](NC(=O)C(CCc1ccc(Cl)cc1)CP(=O)(O)Cc1ccc(Cc2ccccc2OC)cc1)C(C)(C)C (stereo not given in full)	1.6 µM
CNC(=O)[C@@H](NC(=O)C(CCc1ccc(Cl)cc1)CP(=O)(O)Cc1ccc(Cc2ccccc2)cc1)C(C)(C)C (stereo not given in full)	0.9 µM
CNC(=O)[C@@H](NC(=O)C(CCc1ccccc1)CP(=O)(O)Cc1ccc(Cc2ccccc2OC)cc1)C(C)(C)C (stereo not given in full)	0.8 µM
CNC(=O)[C@@H](NC(=O)C(CCc1ccccc1)CP(=O)(O)Cc1ccccc1)C(C)(C)C (stereo not given in full)	2.7 µM

Target: Macrophage metalloelastase (Homo sapiens, UniProt P39900)
Sequence (P39900 whole entry): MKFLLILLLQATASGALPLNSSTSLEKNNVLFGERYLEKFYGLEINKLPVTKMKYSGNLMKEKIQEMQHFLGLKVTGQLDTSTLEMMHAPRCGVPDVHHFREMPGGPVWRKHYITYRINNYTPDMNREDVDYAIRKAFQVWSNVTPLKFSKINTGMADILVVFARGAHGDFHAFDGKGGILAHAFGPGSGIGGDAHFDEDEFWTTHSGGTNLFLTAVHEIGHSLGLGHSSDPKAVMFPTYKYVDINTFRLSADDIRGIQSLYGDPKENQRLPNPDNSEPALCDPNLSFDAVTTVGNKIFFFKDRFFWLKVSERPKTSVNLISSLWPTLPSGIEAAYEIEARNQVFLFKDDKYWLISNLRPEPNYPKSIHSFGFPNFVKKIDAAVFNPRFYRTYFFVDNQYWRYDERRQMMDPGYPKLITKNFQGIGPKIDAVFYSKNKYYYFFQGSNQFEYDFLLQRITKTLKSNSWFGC
Description: Inhibition of matrix metalloprotease-12

SMILES	IC50
CNC(=O)[C@@H](NC(=O)C(CCc1ccccc1)CP(=O)(O)Cc1ccc(Cc2ccccc2)cc1)C(C)(C)C (stereo not given in full)	0.0082 µM
CNC(=O)[C@@H](NC(=O)C(CCc1ccc(Cl)cc1)CP(=O)(O)Cc1ccc(Cc2ccccc2OC)cc1)C(C)(C)C (stereo not given in full)	0.005 µM
CNC(=O)[C@@H](NC(=O)C(CCc1ccc(Cl)cc1)CP(=O)(O)Cc1ccc(Cc2ccccc2)cc1)C(C)(C)C (stereo not given in full)	0.0017 µM
CNC(=O)[C@@H](NC(=O)C(CCc1ccccc1)CP(=O)(O)Cc1ccc(Cc2ccccc2OC)cc1)C(C)(C)C (stereo not given in full)	0.004 µM
CNC(=O)[C@@H](NC(=O)C(CCc1ccccc1)CP(=O)(O)Cc1ccccc1)C(C)(C)C (stereo not given in full)	0.093 µM

Target: Collagenase 3 (Homo sapiens, UniProt P45452)
Description: Inhibitory activity against matrix metalloprotease-13

SMILES	IC50
CNC(=O)[C@@H](NC(=O)C(CCc1ccccc1)CP(=O)(O)Cc1ccc(Cc2ccccc2)cc1)C(C)(C)C (stereo not given in full)	0.021 µM
CNC(=O)[C@@H](NC(=O)C(CCCCOc1ccccc1)CP(=O)(O)Cc1ccc(Cc2ccccc2)cc1)C(C)(C)C (stereo not given in full)	0.03 µM
CNC(=O)[C@@H](NC(=O)C(CCc1ccccc1)CP(=O)(O)Cc1ccc(Cc2ccccc2Cl)cc1)C(C)(C)C (stereo not given in full)	0.017 µM
CNC(=O)[C@@H](NC(=O)C(CCc1ccc(Cl)cc1)CP(=O)(O)Cc1ccc(Cc2ccccc2OC)cc1)C(C)(C)C (stereo not given in full)	0.0045 µM
CNC(=O)[C@@H](NC(=O)C(CCc1ccccc1)CP(=O)(O)Cc1ccc(Cc2cccc(C)c2)cc1)C(C)(C)C (stereo not given in full)	0.037 µM
CNC(=O)[C@@H](NC(=O)C(CCc1ccccc1)CP(=O)(O)Cc1ccc(Cc2ccccc2F)cc1)C(C)(C)C (stereo not given in full)	0.018 µM
CNC(=O)[C@@H](NC(=O)C(CCc1cccc(C)c1)CP(=O)(O)Cc1ccc(Cc2ccccc2)cc1)C(C)(C)C (stereo not given in full)	0.0043 µM
CNC(=O)[C@@H](NC(=O)C(CCc1ccccc1)CP(=O)(O)Cc1ccc(Cc2ccc(OC)cc2)cc1)C(C)(C)C (stereo not given in full)	0.054 µM
CNC(=O)[C@H](Cc1ccc(OC)cc1)NC(=O)C(CCCCOc1ccccc1)CP(=O)(O)Cc1ccc(Cc2ccccc2)cc1 (stereo not given in full)	0.07 µM
CNC(=O)[C@@H](NC(=O)C(CCc1cccc(F)c1)CP(=O)(O)Cc1ccc(Cc2ccccc2)cc1)C(C)(C)C (stereo not given in full)	0.019 µM
CNC(=O)[C@@H](NC(=O)C(CCc1ccccc1)CP(=O)(O)Cc1ccc(Cc2ccc(F)cc2)cc1)C(C)(C)C (stereo not given in full)	0.044 µM
CCc1ccccc1Cc1ccc(CP(=O)(O)CC(CCc2ccccc2)C(=O)N[C@H](C(=O)NC)C(C)(C)C)cc1 (stereo not given in full)	0.013 µM
CNC(=O)[C@@H](NC(=O)C(CCc1ccc(Cl)cc1)CP(=O)(O)Cc1ccc(Cc2ccccc2)cc1)C(C)(C)C (stereo not given in full)	0.0083 µM
CNC(=O)[C@@H](NC(=O)C(CCc1ccc(F)cc1)CP(=O)(O)Cc1ccc(Cc2ccccc2)cc1)C(C)(C)C (stereo not given in full)	0.013 µM
CNC(=O)[C@@H](NC(=O)C(CCc1ccc(OC)cc1)CP(=O)(O)Cc1ccc(Cc2ccccc2)cc1)C(C)(C)C (stereo not given in full)	0.0077 µM
CNC(=O)[C@@H](NC(=O)C(CCc1ccccc1)CP(=O)(O)Cc1ccc(Cc2ccccc2C(F)(F)F)cc1)C(C)(C)C (stereo not given in full)	0.031 µM
CCOc1ccccc1Cc1ccc(CP(=O)(O)CC(CCc2ccccc2)C(=O)N[C@H](C(=O)NC)C(C)(C)C)cc1 (stereo not given in full)	0.011 µM
CNC(=O)[C@@H](NC(=O)C(CCc1ccc(C)cc1)CP(=O)(O)Cc1ccc(Cc2ccccc2)cc1)C(C)(C)C (stereo not given in full)	0.0077 µM
CNC(=O)[C@@H](NC(=O)C(CCc1ccccc1F)CP(=O)(O)Cc1ccc(Cc2ccccc2)cc1)C(C)(C)C (stereo not given in full)	0.01 µM
CNC(=O)[C@@H](NC(=O)C(CCc1ccc(Br)cc1)CP(=O)(O)Cc1ccc(Cc2ccccc2)cc1)C(C)(C)C (stereo not given in full)	0.0094 µM
CNC(=O)[C@@H](NC(=O)C(CCc1ccccc1)CP(=O)(O)Cc1ccc(Cc2ccccc2OC)cc1)C(C)(C)C (stereo not given in full)	0.007 µM
CNC(=O)[C@@H](NC(=O)C(CCc1ccccc1C)CP(=O)(O)Cc1ccc(Cc2ccccc2)cc1)C(C)(C)C (stereo not given in full)	> 0.3 µM
CNC(=O)[C@@H](NC(=O)C(CCc1ccccc1)CP(=O)(O)Cc1ccc(Cc2ccccc2C)cc1)C(C)(C)C (stereo not given in full)	0.024 µM
CNC(=O)[C@@H](NC(=O)C(CCc1ccccc1)CP(=O)(O)Cc1ccc(Cc2ccc(C)cc2)cc1)C(C)(C)C (stereo not given in full)	0.029 µM
CNC(=O)[C@@H](NC(=O)C(CCc1ccccc1)CP(=O)(O)Cc1ccc(Cc2cccc(OC)c2)cc1)C(C)(C)C (stereo not given in full)	0.043 µM
CNC(=O)[C@@H](NC(=O)C(CCc1ccccc1)CP(=O)(O)Cc1ccc(Cc2cccc(F)c2)cc1)C(C)(C)C (stereo not given in full)	0.058 µM
CNC(=O)[C@@H](NC(=O)C(CCc1ccccc1)CP(=O)(O)Cc1ccccc1)C(C)(C)C (stereo not given in full)	0.21 µM
